This is an account of results in patent US11485744B2, “High penetration prodrug compositions of antimicrobials and antimicrobial-related compounds” (priority 2009, dated 2022).

One data set has as its system K. pneumonlae. The data set is described as follows: MIC against K. pneumonlae. The data set is classed as cell-based. Particulars: Table 6b; combinations antibiotic/inhibitor.
In another data set the test system is E. cloacae. The data set is described as follows: MIC against E. cloacae. The data set is classed as cell-based. Particulars: Enterobacter cloacae; Table 6b; combinations antibiotic/inhibitor.
The next data set has as its system B. fragilis. The data set is described as follows: MIC against B. fragilis. Particulars: Bacteroides fragilis; Table 6b; combinations antibiotic/inhibitor. In kind it is cell-based.
Data set [1] is described as follows: In vitro penetration across isolated human skin in modified Franz cells. Particulars: Table 1a; isolated human skin, Franz cells, 10% in 0.2 M phosphate buffer pH 7.4, n=5.

Take `CC1(C)S[C@@H]2[C@H](NC(=O)[C@H](N)c3ccccc3)C(=O)N2[C@H]1C(=O)O` [Ampicillin]: the MIC with K. pneumonlae stood at 0.3 µg/mL; in the data set with E. cloacae it was 5 µg/mL; in the data set with B. fragilis, 68 µg/mL. Also, the “In vitro Penetration Rate (apparent flux), Parent compounds” value in data set [1] was less than 0.015 mg/cm^2/h.

For `CO/N=C(\C(=O)N[C@@H]1C(=O)N2C(C(=O)O)=C(CSc3nc(=O)c(=O)[nH]n3C)CS[C@H]12)c1csc(N)n1` [Ceftriaxone], the MIC with K. pneumonlae is 0.5 µg/mL; in the data set with E. cloacae, 1 µg/mL; in the data set on B. fragilis, 8 µg/mL.
